Some test systems named below: MALME-3M melanoma; ACHN renal; SN12C renal; M14 melanoma; RPMI-8226 leukemia; HT29 colon; KM12 colon; RXF 393 renal; HCT-116 colon.
Holding throughout (assay): inhibition of tumour cell growth, NCI panel, 48 h

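Cultured in 96-well plates, cells were exposed to test compound for 48 hours across five concentrations. GI50: concentration for 50% inhibition of growth. TGI: concentration producing complete growth inhibition.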

This is an account of results in PubChem BioAssay (NCI).

`CO[C@@]1(c2ccccc2)O[C@H]2OCCC2[C@H]1c1ccc(Cl)cc1` (stereo partly drawn): the TGI was 84.8 µM in the assay on MALME-3M melanoma; greater than 100 µM with ACHN renal; greater than 100 µM in the assay with SN12C renal; greater than 100 µM with M14 melanoma; greater than 100 µM with RPMI-8226 leukemia; 50.6 µM with HT29 colon. For the same molecule, the TGI in the assay with KM12 colon was greater than 100 µM; in the assay with RXF 393 renal, 57.4 µM; in the assay with HCT-116 colon, greater than 100 µM.
With `C=C1C[C@@H]2C[C@@H](C)CC(O)[C@]2(CCCN)C1O` (stereo partly drawn), the TGI in the assay on MALME-3M melanoma, in the assay on ACHN renal, in the assay on SN12C renal, with M14 melanoma, in the assay on RPMI-8226 leukemia and in the assay with HT29 colon was greater than 100 µM in each case. Moreover, the TGI with KM12 colon, in the assay on RXF 393 renal and in the assay with HCT-116 colon was greater than 100 µM each time.
As to `COc1ccc(OC(C)C(=O)O)c2c(=O)ccccc12` (stereo not drawn), the TGI in the assay with MALME-3M melanoma, in the assay with ACHN renal, with SN12C renal, in the assay with M14 melanoma, in the assay on RPMI-8226 leukemia and in the assay on HT29 colon was greater than 100 µM throughout. Besides, the TGI in the assay on KM12 colon and with RXF 393 renal was greater than 100 µM throughout.
With `CCC(CO)Nc1nc2c(c(=O)n(C)c(=O)n2C)n1CCO` (stereo not drawn), the TGI in the assay on MALME-3M melanoma, with ACHN renal, in the assay with SN12C renal, in the assay on RPMI-8226 leukemia, in the assay on HT29 colon and with KM12 colon was greater than 100 µM each time. Besides, the TGI in the assay with RXF 393 renal and in the assay with HCT-116 colon was greater than 100 µM each time.
On to `C1=CCCC=CCC1.C[PH+](C)C.C[PH+](C)C.C[PH+](C)C.[Cl-].[Ir]`, for which the GI50 in the assay with MALME-3M melanoma is 22.9 µM; in the assay with ACHN renal it was greater than 100 µM; in the assay with SN12C renal it was 82.6 µM; with M14 melanoma it was greater than 100 µM; with HT29 colon, 47.6 µM; in the assay with KM12 colon, 43.6 µM. The figures for the GI50 with RXF 393 renal and with HCT-116 colon were greater than 100 µM and 42.9 µM, respectively. Also, the TGI was 61.5 µM in the assay with MALME-3M melanoma; greater than 100 µM with ACHN renal; greater than 100 µM in the assay on SN12C renal; greater than 100 µM with M14 melanoma; greater than 100 µM with HT29 colon; greater than 100 µM in the assay on KM12 colon. For the same molecule, the TGI in the assay with RXF 393 renal and in the assay on HCT-116 colon was greater than 100 µM throughout.
For the molecule `COc1ccc([C@@H]2OC(=O)C3C2C(=O)O[C@H]3c2ccc(OC)c(OC)c2)cc1OC` (stereo partly drawn), the TGI in the assay on MALME-3M melanoma, with ACHN renal, in the assay on SN12C renal, with M14 melanoma, in the assay with RPMI-8226 leukemia and in the assay on HT29 colon was greater than 100 µM throughout. The TGI in the assay with KM12 colon, in the assay on RXF 393 renal and with HCT-116 colon was greater than 100 µM throughout.
For `COc1cc2cnc3c4cc(OCc5ccccc5)ccc4ccc3c2cc1OC`, the TGI was greater than 100 µM with MALME-3M melanoma; greater than 100 µM in the assay with ACHN renal; greater than 100 µM with SN12C renal; greater than 100 µM with M14 melanoma; 20.2 µM in the assay on RPMI-8226 leukemia; greater than 100 µM in the assay with HT29 colon. For the same molecule, the TGI was greater than 100 µM with KM12 colon, 47.6 µM in the assay with RXF 393 renal and greater than 100 µM in the assay with HCT-116 colon.
Consider `COc1cc(/C=N/N=C(\N)NO)c([N+](=O)[O-])cc1OC`, for which the TGI in the assay with MALME-3M melanoma was greater than 100 µM; in the assay on ACHN renal it was 86.5 µM; in the assay on SN12C renal it was greater than 100 µM; in the assay on M14 melanoma, greater than 100 µM; in the assay with RPMI-8226 leukemia it was greater than 100 µM; in the assay on HT29 colon, greater than 100 µM. Also, the figures for the TGI in the assay on KM12 colon, with RXF 393 renal and with HCT-116 colon were greater than 100 µM, 65.2 µM and 75.1 µM, respectively.
As for `NC(=O)c1ccc(Cl)c([N+](=O)[O-])c1`, the TGI in the assay with MALME-3M melanoma, in the assay on ACHN renal, with SN12C renal, in the assay on M14 melanoma, in the assay with HT29 colon and in the assay on KM12 colon was greater than 100 µM throughout. The TGI in the assay on RXF 393 renal and in the assay with HCT-116 colon was greater than 100 µM throughout.
Take `COC(=O)CC[C@]12C[C@]13CC[C@]1(C)C4C(C)C[C@]5(CC(C)C(=O)O5)OC4CC1(C)C3CCC2C(C)(C)O` (stereo partly drawn): the TGI with MALME-3M melanoma was greater than 100 µM; in the assay on ACHN renal, greater than 100 µM; in the assay on SN12C renal, greater than 100 µM; in the assay with M14 melanoma, greater than 100 µM; with RPMI-8226 leukemia it was 98.7 µM; in the assay on HT29 colon it was greater than 100 µM. The TGI in the assay on KM12 colon, with RXF 393 renal and with HCT-116 colon was greater than 100 µM throughout.
In the case of `COc1c(N2CCN(CN3C(=O)C(=Nc4ccc(S(=O)(=O)Nc5ncccn5)cc4)c4cc(Cl)ccc43)C(C)C2)c(F)cc2c(=O)c(C(=O)O)cn(C3CC3)c12` (stereo not drawn), the GI50 in the assay with ACHN renal was 11.8 µM; in the assay on SN12C renal, 10.6 µM; in the assay with M14 melanoma, 13.8 µM; in the assay with RPMI-8226 leukemia, 16.8 µM; with HT29 colon, 7.76 µM; in the assay on KM12 colon, 9.61 µM. Besides, the figures for the GI50 in the assay on RXF 393 renal and in the assay with HCT-116 colon were 8.3 µM and 9.19 µM, respectively. Besides, the TGI in the assay with ACHN renal is greater than 50 µM; with SN12C renal, 27.5 µM; in the assay with M14 melanoma, 44.7 µM; with RPMI-8226 leukemia it was greater than 50 µM; in the assay with HT29 colon, greater than 50 µM; in the assay on KM12 colon, 26.8 µM. Moreover, the values for the TGI in the assay with RXF 393 renal and in the assay with HCT-116 colon were greater than 50 µM and 21.7 µM, respectively.
Regarding `COC(=O)C1CCc2nnc(-c3ccccc3)n21` (stereo not drawn), the TGI with MALME-3M melanoma, with ACHN renal, in the assay with SN12C renal, in the assay on M14 melanoma, with RPMI-8226 leukemia and in the assay with HT29 colon was greater than 100 µM in each case. The TGI in the assay with KM12 colon, in the assay with RXF 393 renal and with HCT-116 colon was greater than 100 µM throughout.
For `O=c1c2cc3ccccc3n2c(=O)c2cc3ccccc3n12`, the TGI with MALME-3M melanoma, in the assay with ACHN renal, in the assay on SN12C renal, with M14 melanoma, in the assay on RPMI-8226 leukemia and with HT29 colon was greater than 100 µM throughout. Also, the TGI with KM12 colon, in the assay on RXF 393 renal and in the assay on HCT-116 colon was greater than 100 µM throughout.
